From patent publication US7214715B2, “Compounds to treat Alzheimer's disease” (Pharmacia & Upjohn, priority 2000, dated 2007)

melting point [°C]	SMILES
205 to 209	CCCN(CCC)C(=O)c1cc(C(=O)N[C@@H](Cc2ccccc2)[C@H](O)CNCc2cccc(OC)c2)cc(-c2ccc(OC)cc2)c1.Cl
230 to 233	CCCN(CCC)C(=O)c1cc(C(=O)N[C@@H](Cc2cc(F)cc(F)c2)[C@H](O)CNCc2cccc(OC)c2)cc(-c2ccccc2)c1.Cl
214 to 219	CCCN(CCC)C(=O)c1cc(C(=O)N[C@@H](Cc2ccccc2)[C@H](O)CNCc2cccc(OC)c2)cc(-c2ccccc2)c1.Cl
199 to 201	CCCN(CCC)C(=O)c1cc(C(=O)N[C@@H](Cc2ccccc2)[C@H](O)CNCc2cccc(OC)c2)cc(-c2ccsc2)c1.Cl
